In PMC8869358, “High-Throughput Chemical Screening and Structure-Based Models to Predict hERG Inhibition” (Biology, 2022):
Counter-ions that a name gives are not always drawn.

Target: hERG (Homo sapiens, UniProt Q12809)
Test: cell-based
Details: (-LOG10(IC50), µM)

Chain of hERG (Q12809 whole entry): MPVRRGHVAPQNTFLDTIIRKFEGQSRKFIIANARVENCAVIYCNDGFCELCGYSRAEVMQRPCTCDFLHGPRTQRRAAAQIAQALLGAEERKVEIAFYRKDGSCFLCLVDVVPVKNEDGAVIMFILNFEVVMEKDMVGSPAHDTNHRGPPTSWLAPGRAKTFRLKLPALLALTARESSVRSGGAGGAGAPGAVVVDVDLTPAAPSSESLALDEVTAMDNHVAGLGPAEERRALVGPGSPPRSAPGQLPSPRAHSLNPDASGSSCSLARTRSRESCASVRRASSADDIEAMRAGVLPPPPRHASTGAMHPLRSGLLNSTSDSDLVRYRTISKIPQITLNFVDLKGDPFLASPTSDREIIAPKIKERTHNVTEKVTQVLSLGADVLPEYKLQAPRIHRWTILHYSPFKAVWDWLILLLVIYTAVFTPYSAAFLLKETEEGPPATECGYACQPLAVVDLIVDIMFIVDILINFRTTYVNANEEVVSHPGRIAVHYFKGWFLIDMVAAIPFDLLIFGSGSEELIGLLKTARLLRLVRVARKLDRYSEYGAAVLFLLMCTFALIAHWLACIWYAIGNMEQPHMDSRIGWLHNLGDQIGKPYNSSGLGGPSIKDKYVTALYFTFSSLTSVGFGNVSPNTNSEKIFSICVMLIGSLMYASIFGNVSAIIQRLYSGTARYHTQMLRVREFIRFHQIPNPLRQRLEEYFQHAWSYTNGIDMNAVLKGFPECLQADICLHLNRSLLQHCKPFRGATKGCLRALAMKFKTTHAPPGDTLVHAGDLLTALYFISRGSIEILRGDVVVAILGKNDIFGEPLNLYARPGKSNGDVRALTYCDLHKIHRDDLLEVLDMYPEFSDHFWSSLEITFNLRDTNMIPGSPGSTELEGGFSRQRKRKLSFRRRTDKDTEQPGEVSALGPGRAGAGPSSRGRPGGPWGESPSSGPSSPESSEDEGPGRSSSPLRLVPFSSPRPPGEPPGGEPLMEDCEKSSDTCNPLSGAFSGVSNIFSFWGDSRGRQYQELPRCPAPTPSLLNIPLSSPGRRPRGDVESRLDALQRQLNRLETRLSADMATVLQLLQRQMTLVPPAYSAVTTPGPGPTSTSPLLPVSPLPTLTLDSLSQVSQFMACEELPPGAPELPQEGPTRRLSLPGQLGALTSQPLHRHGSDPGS

In order of falling IC50:
1. C[C@H]1CCC[C@H](O)CCCCCc2cc(O)cc(O)c2C(=O)O1 [Zearalanol]  55.4 µM
2. COc1ccc(S(=O)(=O)N2C(=O)[C@@](c3ccccc3OC)(N3C[C@H](O)C[C@H]3C(=O)N(C)C)c3cc(Cl)ccc32)c(OC)c1 [Nelivaptan]  54.9 µM
3. O=[N+]([O-])C1(Br)COCOC1 [5-Bromo-5-nitro-1,3-dioxane]  51.9 µM
4. O=S(=O)(Oc1ccc(Cl)cc1Cl)c1ccccc1 [2,4-Dichlorophenyl benzenesulfonate]  51.8 µM
5. CC1(C)CCC(Cc2ccc(Cl)cc2)C1(O)Cn1cncn1 (stereo not drawn) [Metconazole]  50.9 µM
6. OCC(c1ccc(Cl)cc1)c1ccc(Cl)cc1 [2,2-Bis(4-chlorophenyl)ethanol]  49 µM
7. Clc1nc(C(Cl)(Cl)Cl)c(Cl)c(Cl)c1Cl [2,3,4,5-Tetrachloro-6-(trichloromethyl)pyridine]  49 µM
8. CCOP(=S)(OCC)Oc1ccc([N+](=O)[O-])cc1 [parathion]  45.9 µM
9. CC(C)COC(=O)COc1cc(Cl)c(Cl)cc1Cl [Isobutyl (2,4,5-trichlorophenoxy)acetate]  41.1 µM
10. NCCNc1cccc2ccccc12 [N-(1-Naphthyl)ethylenediamine dihydrochloride]  40.2 µM
11. COc1cc(C(C)(C)C)c(O)c(C(C)(C)C)c1 [2,6-Di-tert-butyl-4-methoxyphenol]  38.9 µM
12. ClC1=C(Cl)[C@]2(Cl)[C@@H]3[C@@H](Cl)[C@H]4O[C@H]4[C@@H]3C1(Cl)C2(Cl)Cl [Heptachlor epoxide B]  38.9 µM
13. CC/C=C\CCOC(=O)c1ccccc1O [(3Z)-Hex-3-en-1-yl salicylate]  34.7 µM
14. O=C(Nc1ccccc1)N(Cc1ccc(Cl)cc1)C1CCCC1 [Pencycuron]  33.4 µM
15. C=CCCC(=O)/C=C/C1C(C)=CCCC1(C)C (stereo not drawn) [Allyl Ionone]  30.9 µM
16. CC(=O)C1=C(C)[C@@H]2C[C@@]3(C1)[C@H](C)CC[C@H]3C2(C)C [Acetylcedrene]  30.5 µM
17. CCn1c2ccccc2c2cc([N+](=O)[O-])ccc21 [9-Ethyl-3-nitro-9H-carbazole]  28.6 µM
18. ClC(Cl)=C(c1ccc(Cl)cc1)c1ccc(Cl)cc1 [p,p'-DDE]  27.5 µM
19. C=CCC1=C(C)[C@@H](OC(=O)[C@@H]2[C@@H](C=C(C)C)C2(C)C)CC1=O [S-Bioallethrin]  23.6 µM
20. CC(CN1c2ccccc2Sc2ccccc21)N(C)C (stereo not drawn) [Promethazine hydrochloride]  23 µM
21. O=C1Cc2ccccc2N1c1c(Cl)cccc1Cl [1-(2,6-Dichlorophenyl)-2-indolinone]  21.9 µM
22. CC(C)(C)C(O)(CCc1ccc(Cl)cc1)Cn1cncn1 (stereo not drawn) [Tebuconazole]  21.9 µM
23. CCCCCCCCCCCC[N+](C)(C)C [Dodecyltrimethylammonium bromide]  21 µM
24. CCOC(=O)COc1ccc2c(C)c(CCN(CC)CC)c(=O)oc2c1Cl [Cloricromen hydrochloride]  20.5 µM
25. COc1cc2c(cc1OC)C(C(C(=O)N(CCc1ccc(OC)c(OC)c1OC)CCc1ccc(OC)c(OC)c1OC)c1ccccc1)=NCC2 (stereo not drawn) [Pinokalant hydrochloride]  20.1 µM
26. CCCCOc1ccc(C(=O)CCN2CCCCC2)cc1 [Dyclonine hydrochloride]  20.1 µM
27. Cc1ccc(N(SC(F)(Cl)Cl)S(=O)(=O)N(C)C)cc1 [Tolylfluanid]  19.5 µM
28. CCCCCCCCCCCCCCCCCCNC(=O)OC1CCN(C(=O)OC[C@H](COC(=O)N(Cc2cccc[n+]2CC)C(=O)c2ccccc2OC)OC)CC1 [Minopafant]  19 µM
29. CCc1ccc(C(c2ccc(CC)cc2)C(Cl)Cl)cc1 [p,p'-Ethyl-DDD]  17.7 µM
30. S=C=NCCc1ccccc1 [Phenethyl isothiocyanate]  16.8 µM
31. CCCCCCCCCCCCCN1CC(C)OC(C)C1 (stereo not drawn) [Tridemorph]  16.4 µM
32. CCCCCCCCn1sc(Cl)c(Cl)c1=O [4,5-Dichloro-2-octyl-3(2H)-isothiazolone]  16.1 µM
33. CCCCCCCCCCCCCCN(CCO)CCO [2,2'-(Tetradecylimino)diethanol]  16.1 µM
34. Cc1ccc(CCn2c3c(c4cc(Cl)ccc42)CN(C)CC3)cn1 [Dorastine]  15.7 µM
35. O=C(Oc1ccccc1)c1ccccc1C(=O)Oc1ccccc1 [Diphenyl phthalate]  15.5 µM
36. CCCCCCCCCCCC(=O)NCCCN(C)C [N-[3-(Dimethylamino)propyl]dodecanamide]  14.3 µM
37. COc1cc2c(cc1OC)-c1c/c(=N\c3c(C)cc(C)cc3C)n(C)c(=O)n1CC2 [Trequinsin hydrochloride]  14 µM
38. C[N+]1(CC2COC(c3ccccc3)(C3CCCCC3)O2)CCCCC1 (stereo not drawn) [Oxapium iodide]  14 µM
39. CCC(C)Nc1ccc(NC(C)CC)cc1 (stereo not drawn) [N,N'-Bis(1-methylpropyl)-1,4-benzenediamine]  12.5 µM
40. CN(Cc1ccc(C(C)(C)C)cc1)Cc1cccc2ccccc12 [Butenafine]  12 µM
41. COc1ccc(C(=CC(=O)N2CCOCC2)c2ccc(Cl)cc2)cc1OC [Dimethomorph]  11.8 µM
42. CCCCCCCCCCCCn1cc[n+](C)c1 [1-Dodecyl-3-methylimidazolium iodide]  10.6 µM
43. ClCCCN1CCN(c2cccc(Cl)c2)CC1 [1-(3-Chlorophenyl)-4-(3-chloropropyl)piperazine hydrochloride]  10.1 µM
44. CCCCCN(CCCCC)C(=O)C(CCC(=O)O)NC(=O)c1ccc(Cl)c(Cl)c1 (stereo not drawn) [Lorglumide sodium]  9.52 µM
45. CCN(CC)CCOC(=O)C(Cc1cccc2ccccc12)CC1CCCO1 (stereo not drawn) [Nafronyl oxalate]  8.99 µM
46. CC(C)(Cc1c[nH]c2ccccc12)NCC(O)COc1ccccc1C#N (stereo not drawn) [Bucindolol]  8.49 µM
47. CCN(CC)Cc1nccn1-c1ccc([N+](=O)[O-])cc1C(=O)c1ccccc1Cl [Nizofenone fumarate]  6.74 µM
48. CN(C)CCOC(c1ccccc1)c1ccc(Br)cc1 (stereo not drawn) [Bromodiphenhydramine]  4.09 µM
49. CCCCC(CC)CN1CN(CC(CC)CCCC)CC(C)(N)C1 (stereo not drawn) [Hexetidine]  3.01 µM
50. CCN(CC)CCSC(=O)C(c1ccccc1)c1ccccc1 [Thiphenamil]  3.01 µM
51. CC(=O)c1ccc2c(c1)N(CCCN1CCC(CCO)CC1)c1ccccc1S2 [Piperacetazine]  2.39 µM
52. O=C(CCCN1CCN(c2ccc(F)cc2)CC1)NC1c2ccccc2CSc2ccccc21 (stereo not drawn) [Monatepil]  2.01 µM
53. COc1cccc(-c2ccc(/C=C\CN3CCCCCC3)cc2Cl)c1 [SR125047]  1.48 µM
54. CO[C@]12C[C@@H](COC(=O)c3cncc(Br)c3)CN(C)[C@@H]1Cc1cn(C)c3cccc2c13 [Nicergoline]  1.45 µM
55. CCCCCCCCCCCC[N+](C)(C)CCOc1ccccc1 [Domiphen bromide]  1.34 µM
56. CCCCCCCCCCCCCC[P+](CCCCCC)(CCCCCC)CCCCCC [Trihexyltetradecylphosphonium chloride]  0.875 µM
57. CCCCc1oc2ccc(NS(C)(=O)=O)cc2c1C(=O)c1ccc(OCCCN(CCCC)CCCC)cc1 [Dronedarone]  0.849 µM
58. COC(=O)[C@H]1[C@H]2C[C@@H]3c4[nH]c5cc(OC)ccc5c4CCN3C[C@H]2C[C@@H](OC(=O)COc2ccc(OC)cc2)[C@@H]1OC [Mefeserpine]  0.786 µM
59. CCCCCCCCN[C@H](C)[C@@H](O)c1ccc(SC(C)C)cc1 [Suloctidil]  0.29 µM
60. OC1(c2ccc(Cl)c(C(F)(F)F)c2)CCN(CCCC(c2ccc(F)cc2)c2ccc(F)cc2)CC1 [Penfluridol]  0.239 µM
